Results on one molecule are retold here after patent publication US20090068126A1, “Composition for surface photoprotection” (priority 2004, published 2009).

Series [1] relates to short hair line albino Guinea pigs. In words: Phototoxicity in vivo. The arrangement: species or system guinea pig. The following applies: 0.1 g %, only in the irradiated area. The protocol: The tests are accomplished in short hair line albino Guinea pigs (n=4). Twenty-four hours before the application of the test substance to 5% [tween/ethanol/water (1:1:10)], the animals dorsal portion hair are chemically removed. Four application sites are chosen, at random: 2 areas for the test substance and other 2 for the methoxypsoralen phototoxic standard at 0.1 g %, following by the UVA radiation exposition, and a control area is protected from the light. After 24 and 48 hours, the observations are made as for the erythema edema formation (AGÊNCIA NACIONAL DE VIGILÂNCIA SANITÁRIA-Brazil, Guia para avaliaçãa de segurança de produtos cosméticos. 2003.; Freitas, Z. M. F., I Ax, P. A., Dellamora-Ortiz, G. M., Santos, E. P., Gonçalves, J. C. S., 2000, S.T.P Pharma Sciences, 10 (3) 239-242; Dinardo, J. C., Wolf, B. A., Morris, W. E., Tenenbaum, S., Schnetzinger, R. W., 1985, J. Soc. Cosmet. Chem., 36, 425-433).

Series [2] has as its system Saccharomyces cerevisiae yeast, wild type strain D273-10B. In words: Phototoxicity test in Saccharomyces cerevisiae yeast (in vitro). Format: cell-based.
Excerpt: The method applied was used by Freitas (Freitas, Z. M. F., I Ax, P. A., Dellamora-Ortiz, G. M., Santos, E. P., Gonçalves, J. C. S., S.T.P Pharma Sciences, 2000, 10 (3): 239-242) for the Saccharomyces cerevisiae yeast use, wild type strain D273-10B, at room temperature, which dense cell layer is not sensitive to the ultraviolet radiation among 320-390 nm (UVA), besides being innocuous.
The yeast growth was in a YPD medium, constituted by yeast extract (1%), peptone (2%), anhydrous glucose (2%), agar (2%). […] The studied substances were applied in 1 g % concentration in Wharman no. 1 sterile filter paper disks, and fixed on the surface of culture media plates. A S. cerevisiae suspension was prepared in sterilized water (10 mL). Aliquots of 0.2 mL were applied and spread in the culture plates using a glass loop. Two plates were prepared for each sample. After seeding and applying the samples, one plate was allowed to grow under two UVA lamps (320-390 nm). A control plate was grown in the dark. […]

As for `COc1c2occc2cc2ccc(=O)oc12` [8-methoxypsoralen], the figures for the erythema degree in series [1] (24 hours) and in series [1] (48 hours) were 1 and 2, respectively. The growth inhibition halo entry in series [2] (0.1 g % in ethanol, plates in the light and in the dark) is given as “presented growth inhibition halo in the light”. For the same molecule, the “phototoxic answer in the in vitro phototoxicity test” value in series [2] (irradiated plate and plate with light absence) was “non-phototoxic”.
